Measurements as given in patent publication US12384801B2, “Benzothiophene, thienopyridine and thienopyrimidine derivatives for the modulation of sting” (CTXT PTY LTD, priority 2019, dated 2025).

Legend:
[1] = molecular target: human HAQ isoform of STING (Homo sapiens (Human), UniProt Q86WV6, G230A/H232R/R293Q/R71H); assay: THP-1 STING Lucia ISG reporter cell line assay; type: cell-based; details: 24 h incubation, luminescence, normalized to ML RR-S2 CDA 40 μM; read-out: EC50 THP-I STING Lucia ISG cells
Sequence of human HAQ isoform of STING (Q86WV6 whole entry R71H/G230A/H232R/R293Q, canonical isoform): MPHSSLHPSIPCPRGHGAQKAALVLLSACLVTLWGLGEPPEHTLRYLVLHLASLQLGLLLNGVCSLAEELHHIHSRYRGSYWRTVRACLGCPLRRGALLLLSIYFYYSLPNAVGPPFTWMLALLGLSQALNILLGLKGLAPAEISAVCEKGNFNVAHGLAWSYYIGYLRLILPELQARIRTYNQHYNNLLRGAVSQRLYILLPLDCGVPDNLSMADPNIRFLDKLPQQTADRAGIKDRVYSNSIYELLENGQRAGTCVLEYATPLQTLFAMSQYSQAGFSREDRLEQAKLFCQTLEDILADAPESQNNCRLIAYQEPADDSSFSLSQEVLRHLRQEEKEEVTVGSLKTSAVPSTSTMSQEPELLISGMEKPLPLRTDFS
Protocol: (§1) THP-1 STING Lucia ISG cells (InvivoGen #thpl-isg) were cultured in RPMI-1640 containing 2 mM L-glutamine, 25 mM HEPES, 100 μg/mL Normocin (InvivoGen) and 10% heat-inactivated FBS. Cells were seeded at a density of 7×10^5 cells/mL, maintained at 37° C./5% CO2, and passaged every 3-4 days. Selection pressure was maintained by the addition of 100 μg/mL Zeocin every second passage.
(§2) Assay conditions: cells were harvested and resuspended at a concentration of 5×10^5 cells/mL in fresh growth media. Of this cell preparation 20 μL per well was dispensed into 384 well cell culture plates (Greiner, #781098X) and incubated at 37° C./5% CO2 for 2 hours.
(§3) Concentration Response Curves (commonly 11 doses) were prepared by 2.5 fold serial dilution starting from 10 mM compound stock solution in DMSO. Compound dilutions were transferred into the cell culture plates using a pintool (0.1 μL transfer), control wells were matched for DMSO. Positive control wells received ML RR-S2 CDA (Med Chem Express HY12885B) in 5 μL of media to a final concentration of 40 μM. All other wells received additional 5 μL of media only to equalize volume. The plates were incubated for 24 h at 37° C./5% CO2.
(§4) For the detection step, QUANTI-Luc (InvivoGen #rep-qlc1) was prepared according to manufacturer's instruction and 10 μL were added per well to the culture plates. Plates were shaken for ten seconds on an orbital shaker and left in the dark at room temperature for two minutes, before luminescence was read on a Perkin Elmer Envision plate reader.
(§5) Data analysis: Luminescence raw data was normalized % activity relative to the signal of the positive control wells and negative control wells which were not treated with compound. The following formula was used to calculate normalized % activity from raw signals: % activity=(sample−negative)/(positive−negative)
(§6) The THP-1 STING Lucia ISG cell EC50 provides an assessment of activity at the human HAQ isoform of STING. For assessing compound activity against the WT human STING isoform, an equivalent method was conducted where the cells used were THP-1-Dual KI-hSTING-R232 (InvivoGen #thpd-r232).

WT human STING isoform = WT human STING isoform (Homo sapiens (Human), UniProt Q86WV6, H232R); assay: THP-1-Dual KI-hSTING-R232 reporter cell line assay; type: cell-based; details: 24 h incubation, luminescence, normalized to ML RR-S2 CDA 40 μM; read-out: EC50 THP-1 Dual KI-hSTING-R232 cells
Sequence of WT human STING isoform (Q86WV6 whole entry H232R, canonical isoform): as the sequence (Q86WV6 whole entry R71H/G230A/H232R/R293Q, canonical isoform) above, with H71R, A230G, Q293R counted along it
Protocol: as §1, §2, §3, §4, §5, §6

human STING (HAQ) = human STING (HAQ) (Homo sapiens (Human), UniProt Q86WV6, G230A/H232R/R293Q); assay: Differential scanning fluorimetry (DSF), huSTING (HAQ); type: binding; details: compound 100 μM, 2 μM protein, Tm with ligand minus Tm of protein alone (1% DMSO)
Sequence of human STING (HAQ) (Q86WV6 149-345 G230A/H232R/R293Q): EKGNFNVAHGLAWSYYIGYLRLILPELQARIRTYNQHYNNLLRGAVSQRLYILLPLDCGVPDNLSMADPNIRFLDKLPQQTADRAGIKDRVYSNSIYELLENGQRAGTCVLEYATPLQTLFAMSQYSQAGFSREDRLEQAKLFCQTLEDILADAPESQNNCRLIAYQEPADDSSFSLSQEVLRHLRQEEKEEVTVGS
Protocol: (§7) Data were analyzed using “Meltdown analysis” protocol described by Rosa (2015).

human STING (WT) = human STING (WT) (Homo sapiens (Human), UniProt Q86WV6, H232R); assay: Differential scanning fluorimetry (DSF), huSTING (WT); type: binding; details: compound 100 μM, 2 μM protein, Tm with ligand minus Tm of protein alone (1% DMSO)
Sequence of human STING (WT) (Q86WV6 149-345 H232R): as the sequence (Q86WV6 149-345 G230A/H232R/R293Q) above, with A82G, Q145R counted along it
Protocol: as §7

Structure (SMILES)	EC50 [1] [µM]	EC50 (WT human STING isoform) [µM]	DSF huSTING (WT) ΔTm (human STING (WT)) [°C]	ΔTm at 100 µM (human STING (HAQ)) [°C]	ΔTm at 100 µM (human STING (WT)) [°C]	DSF huSTING (HAQ) ΔTm (human STING (HAQ)) [°C]
NC(=O)c1ccc2c(c1)nc(-c1c(C(=O)O)sc3cccc(Cl)c13)n2CCn1c(-c2c(C(=O)O)sc3cccc(Cl)c23)nc2cc(C(N)=O)ccc21 (single isomer, unassigned) [Example 1.2, 3,3′-(Ethane-1,2-diylbis(5-carbamoyl-1H-benzo[d]imidazole-1,2-diyl))bis(4-chlorobenzo[b]thiophene-2-carboxylic acid)]	14.2	6.33	−7.14			0.13
NC(=O)c1ccc2c(c1)nc(-c1c(C(=O)O)sc3c(F)ccc(Br)c13)n2CCn1c(-c2c(C(=O)O)sc3c(F)ccc(Br)c23)nc2cc(C(N)=O)ccc21 (single isomer, unassigned) [Example 20.2, 3,3′-(Ethane-1,2-diylbis(5-carbamoyl-1H-benzo[d]imidazole-1,2-diyl))bis(4-bromo-7-fluorobenzo[b]thiophene-2-carboxylic acid)]	14.7	5.81	−4.12			0.44
CCOC(=O)c1sc2ccnc(OC)c2c1-c1nc2cc(C(N)=O)ccc2n1CCn1c(-c2c(C(=O)OCC)sc3ccnc(OC)c23)nc2cc(C(N)=O)ccc21 [Example 6, Diethyl 3,3′-(ethane-1,2-diylbis(5-carbamoyl-1H-benzo[d]imidazole-1,2-diyl))bis(4-methoxythieno[3,2-c]pyridine-2-carboxylate)]	> 40	> 40				
CCOC(=O)c1sc2ccccc2c1-c1nc2cc(C(N)=O)ccc2n1CCn1c(-c2c(C(=O)OCC)sc3ccccc23)nc2cc(C(N)=O)ccc21 [Example 8, Diethyl 3,3′-(ethane-1,2-diylbis(5-carbamoyl-1H-benzo[d]imidazole-1,2-diyl))bis(benzo[b]thiophene-2-carboxylate)]	> 40	> 40				
CCOC(=O)c1sc2cccc(Br)c2c1-c1nc2cc(C(N)=O)ccc2n1CCn1c(-c2c(C(=O)OCC)sc3cccc(Br)c23)nc2cc(C(N)=O)ccc21 [Example 10, Diethyl 3,3′-(ethane-1,2-diylbis(5-carbamoyl-1H-benzo[d]imidazole-1,2-diyl))bis(4-bromobenzo[b]thiophene-2-carboxylate)]	19.9	12.7				
CCOC(=O)c1sc2c(F)ccc(OC)c2c1-c1nc2cc(C(N)=O)ccc2n1CCn1c(-c2c(C(=O)OCC)sc3c(F)ccc(OC)c23)nc2cc(C(N)=O)ccc21 [Example 12, Diethyl 3,3′-(ethane-1,2-diylbis(5-carbamoyl-1H-benzo[d]imidazole-1,2-diyl))bis(7-fluoro-4-methoxybenzo[b]thiophene-2-carboxylate)]	5.08	9.18				
CCOC(=O)c1sc2cccc(C)c2c1-c1nc2cc(C(N)=O)ccc2n1CCn1c(-c2c(C(=O)OCC)sc3cccc(C)c23)nc2cc(C(N)=O)ccc21 [Example 14, Diethyl 3,3′-(1,1′-(ethane-1,2-diyl)bis(5-carbamoyl-1H-benzo[d]imidazole-2,1-diyl))bis(4-methylbenzo[b]thiophene-2-carboxylate)]	> 40	> 40				
CCOC(=O)c1sc2cccc(C#N)c2c1-c1nc2cc(C(N)=O)ccc2n1CCn1c(-c2c(C(=O)OCC)sc3cccc(C#N)c23)nc2cc(C(N)=O)ccc21 [Example 16, Diethyl 3,3′-(ethane-1,2-diylbis(5-carbamoyl-1H-benzo[d]imidazole-1,2-diyl))bis(4-cyanobenzo[b]thiophene-2-carboxylate)]	> 40	> 40				
CCOC(=O)c1sc2cccc(C(F)(F)F)c2c1-c1nc2cc(C(N)=O)ccc2n1CCn1c(-c2c(C(=O)OCC)sc3cccc(C(F)(F)F)c23)nc2cc(C(N)=O)ccc21 [Example 18, Diethyl 3,3′-(ethane-1,2-diylbis(5-carbamoyl-1H-benzo[d]imidazole-1,2-diyl))bis(4-(trifluoromethyl)benzo[b]thiophene-2-carboxylate)]	3.74	> 40				
CCOC(=O)c1sc2cccc(Cl)c2c1-c1nc2c(OC)c(C(N)=O)ccc2n1CCn1c(-c2c(C(=O)OCC)sc3cccc(Cl)c23)nc2c(OC)c(C(N)=O)ccc21 [Example 21, Diethyl 3,3′-(ethane-1,2-diylbis(5-carbamoyl-4-methoxy-1H-benzo[d]imidazole-1,2-diyl))bis(4-chlorobenzo[b]thiophene-2-carboxylate)]	0.019	0.007		4.33	3.41	
CCOC(=O)c1sc2cccc(OCC)c2c1-c1nc2cc(C(N)=O)ccc2n1CCn1c(-c2c(C(=O)OCC)sc3cccc(OCC)c23)nc2cc(C(N)=O)ccc21 [Example 23, Diethyl 3,3′-(ethane-1,2-diylbis(5-carbamoyl-1H-benzo[d]imidazole-1,2-diyl))bis(4-ethoxybenzo[b]thiophene-2-carboxylate)]	> 40	> 40				

Now from value to compound, other results behind:

EC50 [1] [µM]	EC50 (WT human STING isoform) [µM]	DSF huSTING (WT) ΔTm (human STING (WT)) [°C]	ΔTm at 100 µM (human STING (HAQ)) [°C]	ΔTm at 100 µM (human STING (WT)) [°C]	Structure (SMILES)	DSF huSTING (HAQ) ΔTm (human STING (HAQ)) [°C]
0.189	0.196	9.38	21.4		NC(=O)c1ccc2c(c1)nc(-c1c(C(=O)O)sc3cccc(C(F)(F)F)c13)n2CCn1c(-c2c(C(=O)O)sc3cccc(C(F)(F)F)c23)nc2cc(C(N)=O)ccc21 (single isomer, unassigned) [Example 19.1, 3,3′-(Ethane-1,2-diylbis(5-carbamoyl-1H-benzo[d]imidazole-1,2-diyl))bis(4-(trifluoromethyl)benzo[b]thiophene-2-carboxylic acid)]	
2.6	3.66	2.74			NC(=O)c1ccc2c(c1)nc(-c1c(C(=O)O)sc3cccc(C(F)(F)F)c13)n2CCn1c(-c2c(C(=O)O)sc3cccc(C(F)(F)F)c23)nc2cc(C(N)=O)ccc21 (single isomer, unassigned) [Example 19.2, 3,3′-(Ethane-1,2-diylbis(5-carbamoyl-1H-benzo[d]imidazole-1,2-diyl))bis(4-(trifluoromethyl)benzo[b]thiophene-2-carboxylic acid)]	12.26
0.256	0.13		45.5	37.7	COc1c(C(N)=O)ccc2c1nc(-c1c(C(=O)O)sc3cccc(Cl)c13)n2CCn1c(-c2c(C(=O)O)sc3cccc(Cl)c23)nc2c(OC)c(C(N)=O)ccc21 (single isomer, unassigned) [Example 22.1, 3,3′-(Ethane-1,2-diylbis(5-carbamoyl-4-methoxy-1H-benzo[d]imidazole-1,2-diyl))bis(4-chlorobenzo[b]thiophene-2-carboxylic acid)]	
1.01	0.498	35.685			COc1c(C(N)=O)ccc2c1nc(-c1c(C(=O)O)sc3cccc(Cl)c13)n2CCn1c(-c2c(C(=O)O)sc3cccc(Cl)c23)nc2c(OC)c(C(N)=O)ccc21 (single isomer, unassigned) [Example 22.2, 3,3′-(Ethane-1,2-diylbis(5-carbamoyl-4-methoxy-1H-benzo[d]imidazole-1,2-diyl))bis(4-chlorobenzo[b]thiophene-2-carboxylic acid)]	45.31
9.53	3.17				CCOC(=O)c1sc2c(F)ccc(Cl)c2c1-c1nc2cc(C(N)=O)ccc2n1CCn1c(-c2c(C(=O)OCC)sc3c(F)ccc(Cl)c23)nc2cc(C(N)=O)ccc21 [Example A2, Diethyl 3,3′-(ethane-1,2-diylbis(5-carbamoyl-1H-benzo[d]imidazole-1,2-diyl))bis(4-chloro-7-fluorobenzo[b]thiophene-2-carboxylate)]	
